Experimental data: patent US20090202569A1, “Prophylactic/Therapeutic Agent for Cancer” (priority 2006, published 2009)

Key:
[1] = test system: SF268/mock cells; experiment: FAS inhibitor sensitivity of control cells, surviving cells counted by trypan blue exclusion; type: cell-based, human; details: 15 μg/ml, treated for 24 hours
[2] = test system: SF268/ACS5 cells; experiment: FAS inhibitor sensitivity of cells with stable high ACS5 expression, surviving cells counted by trypan blue exclusion; type: cell-based, human; details: 15 μg/ml, treated for 24 hours
[3] = test system: lung cancer cell strain NCI-H23; experiment: Combined effect of ACS inhibitor and FAS inhibitors, cell survival rate by the Sulforhodamine B method; type: cell-based; details: 3 days, n=3, 100% = without drug treatment

Structure (SMILES) | growth suppression effect [1] | growth suppression effect [2] | cell survival rate ([3]; NCI-H23, 2 μM FAS inhibitor alone) [%] | cell survival rate ([3]; NCI-H23, 0.3 μM Triacsin C alone) [%]
C/C=C/C/C=C/CCC(=O)[C@H]1O[C@H]1C(N)=O [Cerulenin, 2R,3S,E,E)-2,3-epoxy-4-oxo-7,10-dodecadienamide] | clear growth suppression effect | no growth suppression effect | 70.2±7.9 | 
CCCC=CCC=CC=CC=NNN=O [Triacsin C, 2,4,7-undecatrienal nitrosohydrazone] |  |  |  | 56.3±0.5
